Results taken from PMC5193077, “An Allosteric Potentiator of the Dopamine D1 Receptor Increases Locomotor Activity in Human D1 Knock-In Mice without Causing Stereotypy or Tachyphylaxis” (The Journal of Pharmacology and Experimental Therapeutics, 2017).
Where “and” joins values, the source holds several entries; their conditions need not be identical. Equal values may be shown once. Read-outs that look alike come from different tables or passages of the source.

What was measured:
5HT2B receptor = 5HT2B receptor (Homo sapiens, UniProt P41595); assay: Standard Lilly selectivity panel, 5HT2B receptor
human D1 receptor [1] = biological target: T1, human D1 receptor (Homo sapiens, UniProt P21728); assay: cAMP response in HEK293 cells stably expressing the human D1 receptor; assay type: cell-based; conditions: for EC50: hD1 HEK293
human D1 receptor [2] = biological target: T1, human D1 receptor; assay: D1 receptor internalization (PathHunter, DiscoveRx)
[3] = Free (unbound) brain concentrations of DETQ in hD1 mice; assay type: in vivo, mouse
Method: Immediately after the LMA measurements described in Fig. 8, the brains were removed, and brain homogenate concentrations were determined by liquid chromatography with tandem mass spectrometry. The unbound fraction in brain was determined by equilibrium dialysis in a mouse brain homogenate mixture after incubation of the compound for 4.5 hours ([Kalvass et al., 2007]).
The unbound brain concentrations were calculated from the following equation: […]

D2 receptor = D2 receptor (Homo sapiens, UniProt P14416); assay: D2 cAMP assay (DiscoveRx); assay type: cell-based; conditions: potentiator, agonist and antagonist mode, up to 10 µM
Method: The D2, β1, β2, β3, and 5HT6 cAMP assays were performed at DiscoveRx using the protocols described on their website (www.discoverx.com).

wild-type C57Bl/6 mice = assay: Locomotor activity (LMA) in wild-type C57Bl/6 mice; assay type: in vivo, mouse
[4] = with EC20 dopamine, 0% = EC20 dopamine response, 100% = maximum dopamine response

Sequence of 5HT2B receptor (P41595 whole entry): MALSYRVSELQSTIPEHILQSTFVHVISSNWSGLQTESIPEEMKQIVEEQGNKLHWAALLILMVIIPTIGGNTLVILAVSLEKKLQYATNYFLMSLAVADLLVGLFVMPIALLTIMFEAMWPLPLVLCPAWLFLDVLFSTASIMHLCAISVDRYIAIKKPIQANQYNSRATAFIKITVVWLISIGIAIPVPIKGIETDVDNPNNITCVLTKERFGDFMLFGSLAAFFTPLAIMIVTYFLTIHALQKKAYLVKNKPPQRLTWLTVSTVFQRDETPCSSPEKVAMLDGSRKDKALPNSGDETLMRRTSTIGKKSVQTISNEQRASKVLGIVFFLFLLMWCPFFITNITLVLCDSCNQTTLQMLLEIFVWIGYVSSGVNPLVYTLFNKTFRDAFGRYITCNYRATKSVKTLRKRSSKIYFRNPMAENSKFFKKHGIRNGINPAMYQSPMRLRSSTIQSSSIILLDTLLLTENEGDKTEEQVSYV
T1 sequence (P21728 whole entry): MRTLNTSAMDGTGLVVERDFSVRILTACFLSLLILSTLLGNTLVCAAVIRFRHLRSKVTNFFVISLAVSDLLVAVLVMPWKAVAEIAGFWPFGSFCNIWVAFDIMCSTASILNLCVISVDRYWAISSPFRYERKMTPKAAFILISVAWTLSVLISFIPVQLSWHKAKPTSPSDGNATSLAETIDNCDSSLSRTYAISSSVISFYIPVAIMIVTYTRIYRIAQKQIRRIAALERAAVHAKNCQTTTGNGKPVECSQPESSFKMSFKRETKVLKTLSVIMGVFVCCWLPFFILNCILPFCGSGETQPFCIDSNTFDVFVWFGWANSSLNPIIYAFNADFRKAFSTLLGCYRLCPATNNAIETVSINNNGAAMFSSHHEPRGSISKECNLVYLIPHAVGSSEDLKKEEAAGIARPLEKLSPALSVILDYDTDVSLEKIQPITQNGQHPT
Sequence of D2 receptor (P14416 whole entry): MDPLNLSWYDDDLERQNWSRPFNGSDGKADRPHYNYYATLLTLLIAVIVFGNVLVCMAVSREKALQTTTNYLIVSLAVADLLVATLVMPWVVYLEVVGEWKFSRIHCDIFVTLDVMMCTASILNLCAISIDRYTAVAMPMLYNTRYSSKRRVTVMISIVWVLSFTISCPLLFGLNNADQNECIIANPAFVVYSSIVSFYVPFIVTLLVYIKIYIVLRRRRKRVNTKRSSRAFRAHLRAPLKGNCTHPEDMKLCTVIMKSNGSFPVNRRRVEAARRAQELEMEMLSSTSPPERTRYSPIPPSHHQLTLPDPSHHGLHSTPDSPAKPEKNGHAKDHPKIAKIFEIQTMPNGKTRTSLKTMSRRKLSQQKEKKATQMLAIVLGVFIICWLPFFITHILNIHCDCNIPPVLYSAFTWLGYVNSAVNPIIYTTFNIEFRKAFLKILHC

C[C@H]1c2cccc(C(C)(C)O)c2C[C@H](CO)N1C(=O)Cc1c(Cl)cccc1Cl [DETQ, 2-(2,6-dichlorophenyl)-1-((1S,3R)-3-(hydroxymethyl)-5-(2-hydroxypropan-2-yl)-1-methyl-3,4-dihydroisoquinolin-2(1H)-yl)ethan-1-one]
Stimulation at 5HT2B receptor, potentiator mode (5HT2B receptor; 1 µM): 5% | inhibition at 1 µM (5HT2B receptor; 1 µM, read-out: Inhibition at 5HT2B receptor, antagonist mode): 13% | Stimulation at 5HT2B receptor, potentiator mode (5HT2B receptor; 10 µM): 48% | inhibition at 10 µM (5HT2B receptor; 10 µM, read-out: Inhibition at 5HT2B receptor, antagonist mode): 56% | Relative potency (potentiator mode RA divided by agonist mode RA) (human D1 receptor [1]): 43 fold and 42.8 fold | Maximum overall sensitization to dopamine (α times β) (human D1 receptor [1]; 20.8 × 1.22): 25.4 fold | Emax (human D1 receptor [1]; HEK293, human D1, comparison with rat D1, read-out: Maximum response relative to that of dopamine): 98.6% | Rightward shift of EC50 in the absence of dopamine (human D1 receptor [1]; agonist vs potentiator mode): 6 fold | α-factor (maximum leftward shift of the cAMP response to dopamine) (human D1 receptor [1]; allosteric Schild plot): 21 fold and 20.8 fold and 20.8 ± 1.9 fold | Kb (human D1 receptor [1]; dopamine curve-shift, cAMP, read-out: KB (allosteric Schild plot)): 0.026 µM | EC50 (human D1 receptor [1]; in the presence of an EC20 concentration of dopamine (12 nM), read-out: EC50, cAMP, potentiator mode): 0.0058 µM and 0.00583 µM | Top, cAMP, potentiator mode (human D1 receptor [1]; with 12 nM dopamine, % of window between EC20 dopamine and maximum dopamine response): 95.2% | RA, cAMP agonist mode (human D1 receptor [1]; without dopamine): 0.38 | Top, cAMP, agonist mode (human D1 receptor [1]; without dopamine, % of maximum response to dopamine): 11.6% | EC50 (human D1 receptor [1]; without dopamine, read-out: EC50, cAMP, agonist mode): 0.0304 µM | Pathway Preference cAMP/Internalization (human D1 receptor [2]; RA for cAMP divided by RA for internalization): 13.1 | Relative Preference DETQ/A-77636 (human D1 receptor [2]; pathway preference of DETQ divided by that of A-77636): 2.0 ± 1.4 and 1.97 | RA, Internalization (human D1 receptor [2]; top divided by EC50, with 407 nM dopamine): 1.25 | Bottom, D1 receptor internalization (human D1 receptor [2]; [4]): 5.0% | Top, D1 receptor internalization (human D1 receptor [2]; [4]): 55.8% | Free brain levels after oral dosing ([3]; 240 mg/kg oral, immediately after LMA testing): ~600 nM | concentration at 6 h ([3]; hD1 knock-in, mouse, brain (unbound), 240 mg/kg oral twice daily, at 6 hours, n = 3, read-out: Unbound brain levels): 19.8 ± 1.5 nM | concentration at 12 h ([3]; hD1 knock-in, mouse, brain (unbound), 240 mg/kg oral twice daily, at 12 hours, n = 3, read-out: Unbound brain levels): 30.8 ± 9.4 nM | Activity at D2 receptor (D2 receptor): inactive | LMA activity in wild-type mice (wild-type C57Bl/6 mice; 3–20 mg/kg orally): inactive in wild-type mice | Increase in LMA (wild-type C57Bl/6 mice; wild-type C57Bl/6 mice, 30 mg/kg oral, P = 0.07, not significant): 32%
